In patent US10087191B2, “Piperidine derivative and preparation method and pharmaceutical use thereof” (Jiangsu Hengrui Medicine Co., Ltd., priority 2015, dated 2018):

Legend:
[1] = target: estrogen receptor (ER) (Homo sapiens (Human), UniProt P03372); assay: Inhibition of the binding of estrogen (E) to estrogen receptor (ER), MCF-7/ERE-luciferase reporter cells; format: cell-based; settings: MCF-7/ERE-luciferase cells, 0.1 nM estradiol, 24 hours; read-out: IC50 value of inhibition effect on the binding of E to ER
Procedure: The inhibition effect of the compounds on the binding of E to ER in vitro was tested by the following method.
The object of this experiment was to determine the inhibition effect of the compounds on the binding of E to ER, and the in vitro activity of the compounds was evaluated according to the IC50 value.
MCF-7/ERE-luciferase cells were inoculated into the MEM medium (hyclone, SH30024.01B) containing 10% charcoal stripped FBS (Moregate, FBSF), 1% sodium pyruvate (Sigma, Cat. No. S8636), 1% nonessential amino acids (Sigma, Cat. No. M7145) and 500 μg/ml G418 in a 96-well plate with a density of 30,000 cells/well, and the cells were incubated under the conditions of 37° C. and 5% CO2. […] After incubation for 24 hours, the medium was removed, then 0.1 nM estradiol (Sigma, Cat. No. E2758) and 10 μl of the drug diluted with the medium were added to each well, and the control group was added with DMSO. The plate was gently shaken and incubated in a incubator at 37° C., 5% CO2. After 24 hours, the cell culture medium was discarded.
The inhibition effect of the compounds of the present invention on the binding of E to ER was tested by the experiment described above.

[2] = system: MCF7 cells; assay: Inhibition of the proliferation of MCF7 cells (Cell Titer-Glo); format: cell-based; settings: Homo sapiens, MCF-7 cells, 72 hours, read-out: IC50 value of inhibition effect on the proliferation of MCF7 cells
In short: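 Viability by Cell Titer-Glo luminescence; IC50 from signal versus log concentration.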

[3] = target: ERα (Homo sapiens (Human), UniProt P03372); assay: Degradation effect on ERα in MCF-7 cells (ERα Duoset ELISA); format: cell-based; settings: MCF-7 cells; read-out: IC50 value of the degradation effect on ERα
Procedure: In order to determine the degradation effect on ER induced by the compounds of the present invention, the following method was used to determine the degradation effect of the compounds of the present invention on ER.
MCF-7 cell line (TChu 74, Cell Bank of Chinese Academy of Sciences typical culture preservation Committee)
ERα Duoset Kit (#DYC5715E, R&D System)
MCF-7 cells were incubated in DMEM/F-12 medium containing 10% FBS.
On the first day of the experiment, MCF-7 cells were resuspended in DMEM/F-12 medium containing 10% FBS treated by activated carbon, then inoculated into a 48-well plate with a density of 50,000 cells/well and incubated for 22-24 hours.
On the second day of the experiment, the test compound was diluted with medium and added to a 48-well plate. The ERα-capture antibody was diluted to 1 μg/ml with PBS, and added to a 96-well plate at 100 μl/well. The plate was sealed and coated overnight at room temperature.
On the third day of the experiment, the coated 96-well plate was washed twice with PBS, added with a sealing solution (1% BSA in PBS) at 110 μl/well and sealed for 1 hour at room temperature. The 48-well plate was washed once with PBS, and the residual liquid was removed. Then, 60 μl of lysis (6 M urea, 1 mM EDTA, 0.5% Triton X-100, 1 mM PMSF, Protease Inhibitor cocktail) was added to each well. After lysis on ice for 15 minutes, the diluent (1 mM EDTA, 0.5% TritonX-100 dissolved in PBS) was added. The cell-diluted lysate was transferred to a 96-well plate at 100 μl/well, then the plate was incubated at room temperature for 2 hours. The diluted primary antibody was added after the plate was washed 4 times with a washing liquid (PBST). After incubation for 1 hour, the 96-well plate was washed 4 times, and the second antibody was added, then the plate was incubated for 30 minutes. After the plate was washed with a washing liquid, TMB chromogenic solution was added and incubated for 15 minutes. The reaction was stopped by the addition of 1 M H2SO4, then the light absorption at 450 nm was read.

[4] = Pharmacokinetics assay in BALB/C nude mice after intragastrical administration; format: in vivo; settings: female, mouse, plasma, po, 3 mg/kg; for AUC: read-out: Area Under Curve AUC; for CL/F: read-out: Clearance CL/F (converted); for half-life: read-out: Half-Life t½ (converted); for MRT: read-out: Mean Residence Time MRT; for Cmax: read-out: Plasma Conc. Cmax
Procedure: BALB/C nude mice were used as test animals. The drug concentration in plasma at different time points was determined by LC/MS/MS after intragastrical administration of the compounds of Examples 10, 14, 20, 21, 57, 68, 71, 73, 74, 76 and 89 to BALB/C nude mice. The pharmacokinetic behavior of the compounds of the present invention was studied and evaluated in BALB/C nude mice.
Ninety-nine (99) female BALB/C nude mice were equally divided into 11 groups, which were purchased from SINO-BRITSH SIPPR/BK LAB. ANIMAL LTD., CO, with Certificate No.: SCXK (Shanghai) 2008-0016.
The appropriate amount of each test compound was weighed, and successively added with 9% PEG400+0.5% tween 80+0.5% PVP+90% aqueous solution of 0.5% CMC.
After an overnight fast, 99 female BALB/C nude mice were equally divided into 11 groups, and administered the test compounds intragastrically at an administration volume of 0.2 mL/10 g.
Blood (0.1 mL) was sampled (3 mice at each time point) at 0.5, 1.0, 2.0, 4.0, 6.0, 8.0, 11.0 and 24.0 hours after administration. The samples were stored in heparinized test tubes, and centrifuged for 10 minutes at 3,500 rpm to separate the blood plasma. The plasma samples were stored at −20° C. The plasma concentration of the test compounds in BALB/C nude mice after intragastrical administration was determined by LC/MS/MS.
Pharmacokinetic parameters of the compounds of Examples 10, 14, 20, 21, 57, 68, 71, 73, 74, 76 and 89 of the present invention are shown below.

Chain of ERα (P03372 whole entry): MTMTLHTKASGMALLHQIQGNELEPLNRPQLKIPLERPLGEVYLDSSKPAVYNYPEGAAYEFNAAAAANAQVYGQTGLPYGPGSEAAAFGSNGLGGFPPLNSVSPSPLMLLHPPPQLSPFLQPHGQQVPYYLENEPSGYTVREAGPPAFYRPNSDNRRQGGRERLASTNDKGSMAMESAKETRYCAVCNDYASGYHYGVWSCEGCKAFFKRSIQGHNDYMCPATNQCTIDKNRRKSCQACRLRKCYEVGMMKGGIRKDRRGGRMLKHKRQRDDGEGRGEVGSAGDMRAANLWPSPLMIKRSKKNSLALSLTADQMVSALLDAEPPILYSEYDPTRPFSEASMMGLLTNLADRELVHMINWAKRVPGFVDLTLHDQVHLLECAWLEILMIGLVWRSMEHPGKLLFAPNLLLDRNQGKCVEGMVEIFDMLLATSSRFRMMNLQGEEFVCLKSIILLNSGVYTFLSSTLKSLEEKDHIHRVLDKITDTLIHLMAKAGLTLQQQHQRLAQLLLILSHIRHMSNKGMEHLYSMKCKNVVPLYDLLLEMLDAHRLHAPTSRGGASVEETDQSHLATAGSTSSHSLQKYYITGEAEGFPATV
Chain of estrogen receptor (ER) (P03372 whole entry): as above

Row | IC50 [1] [nM] | IC50 [2] [nM] | DC50 [3] [nM] | SMILES | AUC [4] [ng·h/mL] | CL/F [4] [mL/min/kg] | half-life [4] [h] | MRT [4] [h] | Cmax [4] [ng/mL]
1 | 5.48 | 0.07 | 6.69 | CC1Cc2cc(-c3ccc4[nH]ncc4c3)ccc2C(c2c(F)cc(/C=C/C(=O)O)cc2F)N1CC(C)(C)F [Example 67, (E)-3-(3,5-difluoro-4-((1S,3R/1R,3S)-2-(2-fluoro-2-methylpropyl)-6-(1H-indazol-5-yl)-3-methyl-1,2,3,4-tetrahydroisoquinolin-1-yl)phenyl)acrylic acid] |  |  |  |  | 
2 | 0.84 | 1.35 | 1.79 | CC1Cc2cc(-c3cnn(C4CC4)c3)ccc2C(c2c(F)cc(/C=C/C(=O)O)cc2F)N1CC(C)(C)F [Example 58, (E)-3-(4-((1S,3R/1R,3S)-6-(1-cyclopropyl-1H-pyrazol-4-yl)-2-(2-fluoro-2-methylpropyl)-3-methyl-1,2,3,4-tetrahydroisoquinolin-1-yl)-3,5-difluorophenyl)acrylic acid] |  |  |  |  | 
3 | 0.82 | 0.2 | 0.69 | CC1Cc2cc(-c3cnn(C)c3)ccc2C(c2c(F)cc(/C=C/C(=O)O)cc2F)N1CC(C)(C)F [Example 55, (E)-3-(3,5-difluoro-4-((1S,3R/1R,3S)-2-(2-fluoro-2-methylpropyl)-3-methyl-6-(1-methyl-1H-pyrazol-4-yl)-1,2,3,4-tetrahydroisoquinolin-1-yl)phenyl)acrylic acid] |  |  |  |  | 
4 | 1.88 | 0.83 | 2.33 | CC1Cc2cc3[nH]ncc3cc2C(c2c(F)cc(/C=C/C(=O)O)cc2F)N1CC(C)(C)F [Example 91, (E)-3-(3,5-difluoro-4-((5S,7R/5R,7S)-6-(2-fluoro-2-methylpropyl)-7-methyl-5,6,7,8-tetrahydro-1H-pyrazolo[3,4-g]isoquinolin-5-yl)phenyl)acrylic acid] |  |  |  |  | 
5 | 1.45 | 0.01 | 0.41 | CNC(=O)COc1ccc2c(c1)CC(C)N(CC(C)(C)F)C2c1c(F)cc(/C=C/C(=O)O)cc1F [Example 32, (E)-3-(3,5-difluoro-4-((1S,3R/1R,3S)-2-(2-fluoro-2-methylpropyl)-3-methyl-6-(2-(methylamino)-2-oxoethoxy)-1,2,3,4-tetrahydroisoquinolin-1-yl)phenyl)acrylic acid] |  |  |  |  | 
6 | 1.82 | 0.64 | 7.36 | CC1Cc2cc(-c3cnn(CCF)c3)ccc2C(c2c(F)cc(/C=C/C(=O)O)cc2F)N1CC(C)(C)F [Example 48, (E)-3-(3,5-difluoro-4-((1S,3R/1R,3S)-2-(2-fluoro-2-methylpropyl)-6-(1-(2-fluoroethyl)-1H-pyrazol-4-yl)-3-methyl-1,2,3,4-tetrahydroisoquinolin-1-yl)phenyl)acrylic acid] |  |  |  |  | 
7 | 4.47 | 0.64 | 7.13 | CC1Cc2c(oc3cc(F)ccc23)C(c2c(F)cc(/C=C/C(=O)O)cc2F)N1CC(C)(C)F [Example 86, (E)-3-(3,5-difluoro-4-((1R,3R/1S,3S)-7-fluoro-2-(2-fluoro-2-methylpropyl)-3-methyl-1,2,3,4-tetrahydrobenzofuro[2,3-c]pyridin-1-yl)phenyl)acrylic acid] |  |  |  |  | 
8 | 1.5 | 0.71 | 3.54 | CCn1cc(-c2ccc3c(c2F)CC(C)N(CC(C)(C)F)C3c2c(F)cc(/C=C/C(=O)O)cc2F)cn1 [Example 47, (E)-3-(4-((1S,3R/1R,3S)-6-(1-ethyl-1H-pyrazol-4-yl)-5-fluoro-2-(2-fluoro-2-methylpropyl)-3-methyl-1,2,3,4-tetrahydroisoquinolin-1-yl)-3,5-difluorophenyl)acrylic acid] |  |  |  |  | 
9 | 1.94 | 1.9 | 0.36 | CC1Cc2cc(N3CCOCC3)ccc2C(c2c(F)cc(/C=C/C(=O)O)cc2F)N1CC(C)(C)F [Example 41, (E)-3-(3,5-difluoro-4-((1S,3R/1R,3S)-2-(2-fluoro-2-methylpropyl)-3-methyl-6-morpholino-1,2,3,4-tetrahydroisoquinolin-1-yl)phenyl)acrylic acid] |  |  |  |  | 
10 | 1.22 | 0.67 | 1.61 | CC1Cc2c(oc3ccc(-c4cn[nH]c4)cc23)C(c2c(F)cc(/C=C/C(=O)O)cc2F)N1CC(C)(C)F [Example 88, (E)-3-(3,5-difluoro-4-((1R,3R/1S,3S)-2-(2-fluoro-2-methylpropyl)-3-methyl-6-(1H-pyrazol-4-yl)-1,2,3,4-tetrahydrobenzofuro[2,3-c]pyridin-1-yl)phenyl)acrylic acid] |  |  |  |  | 
11 | 1.07 | 0.22 | 4.72 | C[C@@H]1Cc2cc(-c3ccc4ncccc4c3)ccc2[C@@H](c2c(F)cc(/C=C/C(=O)O)cc2F)N1CC(C)(C)F [Example 64, (E)-3-(3,5-difluoro-4-((1S,3R)-2-(2-fluoro-2-methylpropyl)-3-methyl-6-(quinolin-6-yl)-1,2,3,4-tetrahydroisoquinolin-1-yl)phenyl)acrylic acid] |  |  |  |  | 
12 | 5.56 | 1.29 | 6.25 | CC1Cc2cc(-c3ccccc3)ccc2C(c2c(F)cc(/C=C/C(=O)O)cc2F)N1CC(C)(C)F [Example 59, (E)-3-(3,5-difluoro-4-((1S,3R/1R,3S)-2-(2-fluoro-2-methylpropyl)-3-methyl-6-phenyl-1,2,3,4-tetrahydroisoquinolin-1-yl)phenyl)acrylic acid] |  |  |  |  | 

Row | SMILES | IC50 [1] [nM] | IC50 [2] [nM] | DC50 [3] [nM] | AUC [4] [ng·h/mL] | CL/F [4] [mL/min/kg] | half-life [4] [h] | MRT [4] [h] | Cmax [4] [ng/mL]
13 | CC1Cc2c(oc3cccc(F)c23)C(c2c(F)cc(/C=C/C(=O)O)cc2F)N1CC(C)(C)F [Example 73, (E)-3-(3,5-difluoro-4-((1R,3R/1S,3S)-5-fluoro-2-(2-fluoro-2-methylpropyl)-3-methyl-1,2,3,4-tetrahydrobenzofuro[2,3-c]pyridin-1-yl)phenyl)acrylic acid] |  | 0.2 | 0.76 | 3950 | 210 | 1.47 | 2.45 | 1490
14 | CCn1cc(-c2ccc3oc4c(c3c2)CC(C)N(CC(C)(C)F)C4c2c(F)cc(/C=C/C(=O)O)cc2F)cn1 [Example 76, (E)-3-(4-((1R,3R/1S,3S)-6-(1-ethyl-1H-pyrazol-4-yl)-2-(2-fluoro-2-methylpropyl)-3-methyl-1,2,3,4-tetrahydrobenzofuro[2,3-c]pyridin-1-yl)-3,5-difluorophenyl)acrylic acid] |  | 0.59 | 2.43 | 26900 | 31 | 4.53 | 5.7 | 5460
